Drawing on the NIST ThermoML archive (doi:10.1021/je300692s), this text covers activity coefficient for 38 compounds.

The data set in a line: activity coefficient (dimensionless); of the first substance listed, at infinite dilution; xn = mol fraction of the nth substance listed. As to conditions: 101 kPa, Liquid, Chromatography, x1 = 0.

Each structure is given as a SMILES string. ± gives the expanded uncertainty stated by the source.

With `c1ccsc1` [thiophene] + CCCCCCCCCC[N+]1(C)CCCC1.O=S(=O)([N-]S(=O)(=O)C(F)(F)F)C(F)(F)F, the activity coefficient was found to be 0.6 ± 0.06 (322.6 K), 0.6 ± 0.06 (332.5 K) and 0.61 ± 0.07 (342.8 K).

On to `C#CCCCC` [1-hexyne] + CCCCCCCC[N+]1(C)CCCC1.O=S(=O)([N-]S(=O)(=O)C(F)(F)F)C(F)(F)F, for which the activity coefficient was 1.57 ± 0.16 (323 K), 1.58 ± 0.16 (333 K) and 1.34 ± 0.14 (343.1 K).

In the case of `CCCCCCCCCCC` [undecane] + CCCCCC[N+]1(C)CCCC1.O=S(=O)([N-]S(=O)(=O)C(F)(F)F)C(F)(F)F, the activity coefficient was 34.4 ± 3.6 (322.9 K), 31 ± 3.3 (333 K) and 30.1 ± 3.2 (343.1 K).

With `c1ccncc1` [pyridine] + CCCCCCCC[N+]1(C)CCCC1.O=S(=O)([N-]S(=O)(=O)C(F)(F)F)C(F)(F)F, the activity coefficient reads like this: (323 K) 0.42 ± 0.05; (333 K) 0.39 ± 0.05; (343.1 K) 0.41 ± 0.05.

Regarding `CC1CCCC1` [methylcyclopentane] + CCCCCCCC[N+]1(C)CCCC1.O=S(=O)([N-]S(=O)(=O)C(F)(F)F)C(F)(F)F, the activity coefficient (323 K) came to 3.13 ± 0.33, the activity coefficient (333 K) was 3.36 ± 0.35 and the activity coefficient (343.1 K) was 2.84 ± 0.3.

Regarding `CCCC(C)=O` [pentan-2-one] + CCCCCCCC[N+]1(C)CCCC1.O=S(=O)([N-]S(=O)(=O)C(F)(F)F)C(F)(F)F, the activity coefficient (323 K) is 0.49 ± 0.05, the activity coefficient (333 K) is 0.51 ± 0.06 and the activity coefficient (343.1 K) amounted to 0.48 ± 0.05.

On to `CCCCCCC` [heptane] + CCCCCCCC[N+]1(C)CCCC1.O=S(=O)([N-]S(=O)(=O)C(F)(F)F)C(F)(F)F, for which the activity coefficient reads like this: (323 K) 6.4 ± 0.67; (333 K) 6.06 ± 0.64; (343.1 K) 5.13 ± 0.54.

For `CO` [methanol] + CCCCCCCCCC[N+]1(C)CCCC1.O=S(=O)([N-]S(=O)(=O)C(F)(F)F)C(F)(F)F, the activity coefficient (322.6 K) came out at 1.61 ± 0.17, the activity coefficient (332.5 K) turned out to be 1.32 ± 0.14 and the activity coefficient (342.8 K) came out at 1.36 ± 0.14.

For the compound `CCCCCC` [hexane] + CCCCCCCC[N+]1(C)CCCC1.O=S(=O)([N-]S(=O)(=O)C(F)(F)F)C(F)(F)F, the activity coefficient (323 K) was found to be 5.01 ± 0.53, the activity coefficient (333 K) was 4.8 ± 0.5 and the activity coefficient (343.1 K) turned out to be 4.05 ± 0.43.

Turning to `ClCCl` [dichloromethane] + CCCCCC[N+]1(C)CCCC1.O=S(=O)([N-]S(=O)(=O)C(F)(F)F)C(F)(F)F, the activity coefficient runs as follows: (322.9 K) 0.31 ± 0.04; (333 K) 0.36 ± 0.04; (343.1 K) 0.35 ± 0.04.

Consider `CC(C)OC(C)C` [diisopropyl ether] + CCCCCCCC[N+]1(C)CCCC1.O=S(=O)([N-]S(=O)(=O)C(F)(F)F)C(F)(F)F, for which the activity coefficient reads like this: (323 K) 2.57 ± 0.27; (333 K) 2.58 ± 0.27; (343.1 K) 2.26 ± 0.24.

As for `Cc1ccccc1` [toluene] + CCCCCCCC[N+]1(C)CCCC1.O=S(=O)([N-]S(=O)(=O)C(F)(F)F)C(F)(F)F, the activity coefficient is 0.76 ± 0.08 (323 K), 0.78 ± 0.08 (333 K) and 0.74 ± 0.08 (343.1 K).

As for `CCC(C)=O` [butanone] + CCCCCCCC[N+]1(C)CCCC1.O=S(=O)([N-]S(=O)(=O)C(F)(F)F)C(F)(F)F, the activity coefficient by setting is: (323 K) 0.36 ± 0.04; (333 K) 0.34 ± 0.04; (343.1 K) 0.31 ± 0.04.

Take `CCC(=O)CC` [pentan-3-one] + CCCCCCCC[N+]1(C)CCCC1.O=S(=O)([N-]S(=O)(=O)C(F)(F)F)C(F)(F)F: the activity coefficient (323 K) turned out to be 0.45 ± 0.05, the activity coefficient (333 K) is 0.47 ± 0.05 and the activity coefficient (343.1 K) was 0.44 ± 0.05.

For `CCCO` [propan-1-ol] + CCCCCC[N+]1(C)CCCC1.O=S(=O)([N-]S(=O)(=O)C(F)(F)F)C(F)(F)F, the activity coefficient (322.9 K) is 1.72 ± 0.18, the activity coefficient (333 K) came out at 1.64 ± 0.17 and the activity coefficient (343.1 K) is 1.49 ± 0.15.

As to `CC(C)CO` [2-methyl-1-propanol] + CCCCCCCCCC[N+]1(C)CCCC1.O=S(=O)([N-]S(=O)(=O)C(F)(F)F)C(F)(F)F, the activity coefficient (322.6 K) worked out at 1.7 ± 0.18, the activity coefficient (332.5 K) is 1.53 ± 0.16 and the activity coefficient (342.8 K) is 1.39 ± 0.14.

Turning to `C1CCCCCC1` [cycloheptane] + CCCCCC[N+]1(C)CCCC1.O=S(=O)([N-]S(=O)(=O)C(F)(F)F)C(F)(F)F, the activity coefficient is 14 ± 1.5 (322.9 K), 19 ± 2 (333 K) and 25.1 ± 2.6 (343.1 K).

With `CC1CCCC1` [methylcyclopentane] + CCCCCCCCCC[N+]1(C)CCCC1.O=S(=O)([N-]S(=O)(=O)C(F)(F)F)C(F)(F)F, the activity coefficient (322.6 K) stood at 2.9 ± 0.3, the activity coefficient (332.5 K) worked out at 2.76 ± 0.29 and the activity coefficient (342.8 K) came to 2.66 ± 0.28.

Take `CCCCCC` [hexane] + CCCCCCCCCC[N+]1(C)CCCC1.O=S(=O)([N-]S(=O)(=O)C(F)(F)F)C(F)(F)F: the activity coefficient (322.6 K) amounted to 3.97 ± 0.42, the activity coefficient (332.5 K) was 3.78 ± 0.4 and the activity coefficient (342.8 K) came out at 3.68 ± 0.39.

Take `c1ccccc1` [benzene] + CCCCCCCC[N+]1(C)CCCC1.O=S(=O)([N-]S(=O)(=O)C(F)(F)F)C(F)(F)F: the activity coefficient turned out to be 0.6 ± 0.06 (323 K), 0.62 ± 0.07 (333 K) and 0.61 ± 0.07 (343.1 K).

As to `Cc1cccc(C)c1` [1,3-dimethylbenzene] + CCCCCCCC[N+]1(C)CCCC1.O=S(=O)([N-]S(=O)(=O)C(F)(F)F)C(F)(F)F, the activity coefficient (323 K) is 1 ± 0.1, the activity coefficient (333 K) stood at 0.84 ± 0.09 and the activity coefficient (343.1 K) amounted to 1.05 ± 0.11.

For `C1COCCO1` [1,4-dioxane] + CCCCCCCCCC[N+]1(C)CCCC1.O=S(=O)([N-]S(=O)(=O)C(F)(F)F)C(F)(F)F, the activity coefficient came to 0.38 ± 0.05 (322.6 K), 0.35 ± 0.04 (332.5 K) and 0.38 ± 0.05 (342.8 K).

For `CCC(C)CC` [3-methylpentane] + CCCCCCCC[N+]1(C)CCCC1.O=S(=O)([N-]S(=O)(=O)C(F)(F)F)C(F)(F)F, the activity coefficient was 4.61 ± 0.48 (323 K), 4.52 ± 0.47 (333 K) and 4.08 ± 0.43 (343.1 K).

For the compound `CC1CCCCC1` [methylcyclohexane] + CCCCCCCC[N+]1(C)CCCC1.O=S(=O)([N-]S(=O)(=O)C(F)(F)F)C(F)(F)F, the activity coefficient (323 K) is 4.22 ± 0.44, the activity coefficient (333 K) turned out to be 4.04 ± 0.42 and the activity coefficient (343.1 K) stood at 3.9 ± 0.41.

Consider `c1ccncc1` [pyridine] + CCCCCC[N+]1(C)CCCC1.O=S(=O)([N-]S(=O)(=O)C(F)(F)F)C(F)(F)F, for which the activity coefficient reads like this: (322.9 K) 0.52 ± 0.06; (333 K) 0.52 ± 0.06; (343.1 K) 0.53 ± 0.06.

Take `CCC[N+](=O)[O-]` [1-nitropropane] + CCCCCCCCCC[N+]1(C)CCCC1.O=S(=O)([N-]S(=O)(=O)C(F)(F)F)C(F)(F)F: the activity coefficient amounted to 0.62 ± 0.07 (322.6 K), 0.61 ± 0.07 (332.5 K) and 0.6 ± 0.06 (342.8 K).

Turning to `CCCCCCCCCC` [decane] + CCCCCCCC[N+]1(C)CCCC1.O=S(=O)([N-]S(=O)(=O)C(F)(F)F)C(F)(F)F, the activity coefficient stood at 14.8 ± 0.88 (323 K), 12.5 ± 0.75 (333 K) and 11 ± 0.66 (343.1 K).

On to `CC(C)OC(C)C` [diisopropyl ether] + CCCCCC[N+]1(C)CCCC1.O=S(=O)([N-]S(=O)(=O)C(F)(F)F)C(F)(F)F, for which the activity coefficient reads like this: (322.9 K) 3.18 ± 0.33; (333 K) 3.56 ± 0.37; (343.1 K) 3.53 ± 0.37.

As to `CC1CCCCC1` [methylcyclohexane] + CCCCCC[N+]1(C)CCCC1.O=S(=O)([N-]S(=O)(=O)C(F)(F)F)C(F)(F)F, the activity coefficient by setting is: (322.9 K) 6.57 ± 0.69; (333 K) 6.07 ± 0.64; (343.1 K) 6.03 ± 0.63.

As to `C#CCCCCC` [1-heptyne] + CCCCCCCCCC[N+]1(C)CCCC1.O=S(=O)([N-]S(=O)(=O)C(F)(F)F)C(F)(F)F, the activity coefficient reads like this: (322.6 K) 1.81 ± 0.19; (332.5 K) 1.83 ± 0.19; (342.8 K) 1.83 ± 0.19.

On to `CC(C)O` [propan-2-ol] + CCCCCC[N+]1(C)CCCC1.O=S(=O)([N-]S(=O)(=O)C(F)(F)F)C(F)(F)F, for which the activity coefficient came to 1.53 ± 0.16 (333 K) and 1.4 ± 0.14 (343.1 K).

In the case of `C=CCCCC` [hex-1-ene] + CCCCCCCC[N+]1(C)CCCC1.O=S(=O)([N-]S(=O)(=O)C(F)(F)F)C(F)(F)F, the activity coefficient by setting is: (323 K) 3.17 ± 0.33; (333 K) 3.02 ± 0.32; (343.1 K) 2.58 ± 0.27.

With `ClC(Cl)Cl` [trichloromethane] + CCCCCCCC[N+]1(C)CCCC1.O=S(=O)([N-]S(=O)(=O)C(F)(F)F)C(F)(F)F, the activity coefficient reads like this: (323 K) 0.56 ± 0.06; (333 K) 0.58 ± 0.06; (343.1 K) 0.53 ± 0.06.

As for `CCCCO` [butan-1-ol] + CCCCCCCCCC[N+]1(C)CCCC1.O=S(=O)([N-]S(=O)(=O)C(F)(F)F)C(F)(F)F, the activity coefficient reads like this: (322.6 K) 2.2 ± 0.23; (332.5 K) 1.85 ± 0.19; (342.8 K) 1.64 ± 0.17.

Regarding `CC1CCCCC1` [methylcyclohexane] + CCCCCCCCCC[N+]1(C)CCCC1.O=S(=O)([N-]S(=O)(=O)C(F)(F)F)C(F)(F)F, the activity coefficient was determined as 3.38 ± 0.36 (322.6 K), 3.28 ± 0.34 (332.5 K) and 3.15 ± 0.33 (342.8 K).

In the case of `CCCC(C)=O` [pentan-2-one] + CCCCCCCCCC[N+]1(C)CCCC1.O=S(=O)([N-]S(=O)(=O)C(F)(F)F)C(F)(F)F, the activity coefficient is 0.52 ± 0.06 (322.6 K), 0.53 ± 0.06 (332.5 K) and 0.54 ± 0.06 (342.8 K).

On to `ClCCl` [dichloromethane] + CCCCCCCCCC[N+]1(C)CCCC1.O=S(=O)([N-]S(=O)(=O)C(F)(F)F)C(F)(F)F, for which the activity coefficient came out at 0.27 ± 0.04 (322.6 K), 0.3 ± 0.04 (332.5 K) and 0.3 ± 0.04 (342.8 K).

Turning to `CC#N` [acetonitrile] + CCCCCCCCCC[N+]1(C)CCCC1.O=S(=O)([N-]S(=O)(=O)C(F)(F)F)C(F)(F)F, the activity coefficient by setting is: (322.6 K) 0.49 ± 0.05; (332.5 K) 0.5 ± 0.06; (342.8 K) 0.49 ± 0.05.
